Measurements from patent US20240132498A1, “CRYSTALLINE FORMS OF 5-(3,4-DIFLUOROBENZYL)-8-((1R,4R)-4-METHYLCYCLOHEXYL)-6,9-DIOXO-2,5,8-TRIAZASPIRO[3.5]NONANE-2-CARBALDEHYDE” (Cytokinetics, Incorporated, priority 2022, published 2024).

How the values were obtained:
[1] = Mouse single dose pharmacokinetics; format: in vivo; conditions: plasma, iv, 0.5 mg/kg, male C57BL/6 mice; for Vd: read-out: Vss
Experimental: Male C57BL/6 mice (18-25 g, 6-8 weeks old) were obtained from Zhejiang Vital River Laboratory Animal Technology Co., Ltd. All animals for IV administration had free access to food and water. The IV dosing was performed through tail vein. The IV dose solution for the Test Articles was prepared in 10% DMA/20% PG/70% HPOCD solution (40% w/v aqueous HPOCD) at a concentration of 0.1 mg/mL. The oral dosing suspension was prepared by suspending Test Article in 0.5% HPMC/0.1% Tween 80 in water at a concentration 0.2 mg/mL. Concentrations of IV and PO doses were measured at the end of the study. Pharmacokinetic (PK) parameters were calculated using the nominal dose values if the measured values were within 20% of the nominal values. A group of 15 mice received the IV dose where the volume was 5 mL/kg. Another group of 15 mice received by oral gavage of Test Article at 1 mg/kg. The oral dose volume was 5 mL/kg. Sparse blood samples were collected from groups of three mice via retro-orbital bleeding, placed into a K2EDTA microtainer tube and maintained on ice until centrifugation to obtain plasma. Each designated group of mice were bled at two-time points. The time points were predose (PO only), 5 (IV only), 15, 30 minutes, 1, 2, 4, 6, 8 and 24 hours postdose. Blood samples were centrifuged and the collected plasma was stored at −80° C. until analysis. Plasma samples were analyzed for Test Article concentrations using an LC/MS/MS method. Briefly, a 50 p L aliquot of each plasma sample was mixed with 100 μL of acetonitrile that contained an internal standard (IS). The mixture was vortexed and centrifuged. Ten (10) p L of the resulting solution was injected onto a reverse-phase C18 column and the resultant peaks detected on a LC/MS/MS equipped with a turbo ionspray ionization source. Sample concentrations below the limit of quantification (BLQ) were treated as zero for PK calculations. Composite PK parameters were estimated from a maximum of two sampling points per mouse and three mice per sampling point and the sparse data option of WinNonlin was used for noncompartmental analysis of the concentration-time data (Phoenix WinNonLin software, version 64; Pharsight, Mountain View, CA). The elimination rate constant (k) was calculated as the absolute value of the slope of the linear regression of logarithm of the concentration versus time for the last three data points of the concentration-time profiles. Apparent elimination half-life (t½) values were calculated as 1n(2)/k. Area under the concentration-time curve (AUC) values were estimated using linear trapezoidal method. AUC values were calculated from the dosing time to the last measurable concentration. AUC∞ values were calculated as the sum of the corresponding AUC and the ratio of the last detectable concentration divided by k. Plasma clearance (CL) was calculated from Dose/AUC. Mean resident time (MRT) was estimated by moment analysis. Volume of distribution at steady state (Vss) was calculated from MRT∞×CL. Maximum concentration (Cmax) and time to reach Cmax (tmax) were recorded as observed. Bioavailability was calculated dAUC∞,po/dAU∞.iv×100% where dAUC was the dose normalized AUC value. Compounds tested were prepared in accordance with the synthetic procedures described herein.

[2] = target: T1, CYP3A4 (Homo sapiens, UniProt P08684); test: Time-dependent inhibition of CYP450 enzymes in human liver microsomes: CYP3A4-M (midazolam probe); format: in vitro ADME; conditions: human, pooled human liver microsomes, CYP3A4-M (midazolam probe); for activity at 30 min, 25 µM / activity at 30 min, 50 µM: 30 minutes incubation, read-out: % Activity NADPH T30; for activity at 0 min, 25 µM / activity at 0 min, 50 µM: time zero, read-out: % Activity NADPH T0
T1 construct: from tissue; host or cells: pooled human liver microsomes
Experimental: (§1) An assessment of the time-dependent Inhibitory Potential of the test compounds against Principal Human Cytochrome P450 Isozymes using Human Liver Microsomes was also carried out using standard methods (Grimm et al, Drug Metab. Dispos., Jul; 37(7):1355-70. doi: 10.1124/dmd.109.026716, 2009). Pooled human microsomes and selective CYP probe substrates were used for in vitro assessment of test compounds at 25 and 50 μM as time-dependent inhibitors of […] human hepatic cytochrome P450 isozymes (CYP1A2, 2B6, 2C9, 2C19, 2D6, and 3A4). LC-MS/MS was used to quantify metabolite formation. The inhibition of each P450 enzyme in human liver microsomes was measured as the percentage decrease in the activity of marker metabolite formation as measured by LC-MS/MS compared to non-inhibited controls (=100% activity) at time zero and after 30 minutes incubation. The occurrence of any time dependent inhibition was then expressed as the fold change in enzyme activity at time zero relative to the activity after 30 minutes incubation. The time dependent inhibition for the compound 5-(3,4-difluorobenzyl)-8-((1 r,4r)-4-methylcyclohexyl)-6,9-dioxo-2,5, 8-triazaspiro [3.5]nonane-2-carbaldehyde (Compound 1) against CYP1A2, […], CYP2C8, CYP2C9, CYP2C19, CYP2D6, CYP3A4-M and CYP3A4-T is shown in Table B-12.

[3] = target: T2, CYP3A4-M (Homo sapiens, UniProt P08684); test: as above; format: in vitro ADME; conditions: for (% Activity NADPH T0)/(% Activity NADPH T30): CYP3A4-M (midazolam probe); for fold change in enzyme activity (time dependent inhibition), 3A4: human liver microsomes, midazolam probe, time zero vs 30 minutes incubation, 25 and 50 μM
T2 construct: from tissue; host or cells: pooled human liver microsomes
Experimental: as §1

[4] = target: T3, CYP3A4-T (Homo sapiens, UniProt P08684); test: Time-dependent inhibition of CYP450 enzymes in human liver microsomes: CYP3A4-T (testosterone probe); format: in vitro ADME; conditions: for (% Activity NADPH T0)/(% Activity NADPH T30): CYP3A4-T (testosterone probe); for fold change in enzyme activity (time dependent inhibition), 3A4: human liver microsomes, testosterone probe, time zero vs 30 minutes incubation, 25 and 50 μM
T3 construct: from tissue; host or cells: pooled human liver microsomes
Experimental: as §1

[5] = target: T1, CYP3A4; test: as above; format: in vitro ADME; conditions: human, pooled human liver microsomes, CYP3A4-T (testosterone probe); for activity at 30 min, 25 µM / activity at 30 min, 50 µM: 30 minutes incubation, read-out: % Activity NADPH T30; for activity at 0 min, 25 µM / activity at 0 min, 50 µM: time zero, read-out: % Activity NADPH T0
Experimental: as §1

[6] = Monkey cassette dosing IV pharmacokinetics; format: in vivo; conditions: male, plasma
[7] = target: T4, CYP2C19 (Homo sapiens, UniProt P33261); test: Time-dependent inhibition of CYP450 enzymes in human liver microsomes: CYP2C19; format: in vitro ADME; conditions: for fold change in activity (time dependent inhibition), 2C19: human liver microsomes
T4 construct: from tissue; host or cells: pooled human liver microsomes
Experimental: as §1

T4 sequence (P33261 whole entry): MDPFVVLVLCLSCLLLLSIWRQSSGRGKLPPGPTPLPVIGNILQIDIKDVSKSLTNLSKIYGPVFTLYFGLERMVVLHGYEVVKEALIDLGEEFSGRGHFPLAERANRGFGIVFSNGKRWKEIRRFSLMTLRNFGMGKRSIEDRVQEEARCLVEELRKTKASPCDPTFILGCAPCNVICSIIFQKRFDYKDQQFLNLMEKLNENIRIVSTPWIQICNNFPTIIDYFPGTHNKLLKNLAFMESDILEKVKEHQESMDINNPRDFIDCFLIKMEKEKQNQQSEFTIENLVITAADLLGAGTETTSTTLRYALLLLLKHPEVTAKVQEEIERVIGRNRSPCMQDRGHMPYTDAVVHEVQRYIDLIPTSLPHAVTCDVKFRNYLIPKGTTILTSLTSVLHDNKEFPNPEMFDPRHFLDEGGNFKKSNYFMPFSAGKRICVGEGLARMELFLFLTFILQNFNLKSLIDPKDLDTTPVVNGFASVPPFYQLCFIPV
T3 sequence (P08684 whole entry): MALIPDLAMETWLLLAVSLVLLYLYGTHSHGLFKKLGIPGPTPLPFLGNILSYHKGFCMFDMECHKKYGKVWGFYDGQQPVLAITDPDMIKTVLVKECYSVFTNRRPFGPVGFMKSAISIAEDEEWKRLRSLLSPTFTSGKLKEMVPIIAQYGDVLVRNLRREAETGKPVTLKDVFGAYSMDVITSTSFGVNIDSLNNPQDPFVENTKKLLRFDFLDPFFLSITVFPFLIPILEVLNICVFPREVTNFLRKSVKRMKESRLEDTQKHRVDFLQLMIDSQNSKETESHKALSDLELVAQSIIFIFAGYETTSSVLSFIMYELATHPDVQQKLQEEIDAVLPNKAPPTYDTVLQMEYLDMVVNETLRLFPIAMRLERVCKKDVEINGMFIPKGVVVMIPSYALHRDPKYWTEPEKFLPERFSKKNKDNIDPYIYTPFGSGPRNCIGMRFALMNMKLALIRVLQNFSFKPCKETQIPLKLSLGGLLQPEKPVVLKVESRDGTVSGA
T1 sequence (P08684 whole entry): as above
T2 sequence (P08684 whole entry): as above

**Q.** For `O=C1[C@H](C2COC2)N(Cc2ccc(C(F)(F)F)cc2)C(=O)CN1c1ncc(Cl)cc1F` [Comparator C, (S)-1-(5-chloro-3-fluoropyridin-2-yl)-3-(oxetan-3-yl)-4-(4-(trifluoromethyl)benzyl)piperazine-2,5-dione, reference compound], which clearance [1] is on record?
**A.** 4.67 mL/min/kg

**Q.** And the half-life [1]?
**A.** 2.6 h

**Q.** What about the Vd [1] of the same molecule?
**A.** 1.39 L/kg

**Q.** What about the activity at 30 min, 25 µM [2] of the same molecule?
**A.** 48%

**Q.** And the activity at 0 min, 25 µM [2]?
**A.** 75%

**Q.** And the activity at 30 min, 50 µM [2]?
**A.** 33%

**Q.** And the activity at 0 min, 50 µM [2]?
**A.** 57%

**Q.** And the “(% Activity NADPH T0)/(% Activity NADPH T30)” value ([3]; 25 μM)?
**A.** 1.6

**Q.** And the “(% Activity NADPH T0)/(% Activity NADPH T30)” value ([3]; 50 μM)?
**A.** 1.7

**Q.** What about the “fold change in enzyme activity (time dependent inhibition), 3A4” value [3] of the same molecule?
**A.** > 1.5 fold

**Q.** What about the “(% Activity NADPH T0)/(% Activity NADPH T30)” value ([4]; 25 μM) of the same molecule?
**A.** 1.8

**Q.** What about the “(% Activity NADPH T0)/(% Activity NADPH T30)” value ([4]; 50 μM) of the same molecule?
**A.** 1.8

**Q.** What about the “fold change in enzyme activity (time dependent inhibition), 3A4” value [4] of the same molecule?
**A.** > 1.5 fold

**Q.** What about the activity at 30 min, 25 µM [5] of the same molecule?
**A.** 23%

**Q.** And the activity at 0 min, 25 µM [5]?
**A.** 41%

**Q.** And the activity at 30 min, 50 µM [5]?
**A.** 19%

**Q.** What about the activity at 0 min, 50 µM [5] of the same molecule?
**A.** 35%

**Q.** For `O=CN1CC2(C1)C(=O)N([C@H]1CC[C@H](C(F)F)CC1)CC(=O)N2Cc1ccc(C(F)(F)F)cc1` [Comparator E, 8-((1r,4r)-4-(difluoromethyl)cyclohexyl)-6,9-dioxo-5-(4-(trifluoromethyl)benzyl)-2,5,8-triazaspiro[3.5]nonane-2-carbaldehyde], which clearance [1] is on record?
**A.** 11.6 mL/min/kg

**Q.** What about the half-life [1] of the same molecule?
**A.** 2.8 h

**Q.** And the Vd [1]?
**A.** 3.28 L/kg

**Q.** For `C[C@H]1CC[C@H](N2CC(=O)N(Cc3ccc(F)c(F)c3)C3(CN(C=O)C3)C2=O)CC1` [Compound 1, 5-(3,4-difluorobenzyl)-8-((1r,4r)-4-methylcyclohexyl)-6,9-dioxo-2,5,8-triazaspiro[3.5]nonane-2-carbaldehyde], which clearance [6] is on record?
**A.** 13.1 mL/min/kg

**Q.** What about the half-life [6] of the same molecule?
**A.** 8.69 h

**Q.** And the Vd ([6]; read-out: Vss)?
**A.** 8.8 L/kg

**Q.** And the clearance [1]?
**A.** 28.4 mL/min/kg

**Q.** And the half-life [1]?
**A.** 1.77 h

**Q.** And the Vd [1]?
**A.** 4.2 L/kg

**Q.** And the activity at 30 min, 25 µM [2]?
**A.** 88%

**Q.** What about the activity at 0 min, 25 µM [2] of the same molecule?
**A.** 70%

**Q.** And the activity at 30 min, 50 µM [2]?
**A.** 78%

**Q.** What about the activity at 0 min, 50 µM [2] of the same molecule?
**A.** 57%

**Q.** And the “(% Activity NADPH T0)/(% Activity NADPH T30)” value ([3]; 25 μM)?
**A.** 0.8

**Q.** What about the “(% Activity NADPH T0)/(% Activity NADPH T30)” value ([3]; 50 μM) of the same molecule?
**A.** 0.7

**Q.** And the “fold change in enzyme activity (time dependent inhibition), 3A4” value [3]?
**A.** ≤ 1.2 fold

**Q.** What about the “(% Activity NADPH T0)/(% Activity NADPH T30)” value ([7]; CYP2C19, 25 μM) of the same molecule?
**A.** 1.4

**Q.** What about the “(% Activity NADPH T0)/(% Activity NADPH T30)” value ([7]; CYP2C19, 50 μM) of the same molecule?
**A.** 1.1

**Q.** And the “fold change in activity (time dependent inhibition), 2C19” value ([7]; 25 μM)?
**A.** 1.4 fold

**Q.** And the “fold change in activity (time dependent inhibition), 2C19” value ([7]; 50 μM)?
**A.** no change in activity

**Q.** And the activity at 30 min, 25 µM ([7]; human, pooled human liver microsomes, CYP2C19, 25 μM, 30 minutes incubation, read-out: % Activity NADPH T30)?
**A.** 86%

**Q.** What about the activity at 0 min, 25 µM ([7]; human, pooled human liver microsomes, CYP2C19, 25 μM, time zero, read-out: % Activity NADPH T0) of the same molecule?
**A.** 117%

**Q.** And the activity at 30 min, 50 µM ([7]; human, pooled human liver microsomes, CYP2C19, 50 μM, 30 minutes incubation, read-out: % Activity NADPH T30)?
**A.** 75%

**Q.** What about the activity at 0 min, 50 µM ([7]; human, pooled human liver microsomes, CYP2C19, 50 μM, time zero, read-out: % Activity NADPH T0) of the same molecule?
**A.** 84%

**Q.** And the “(% Activity NADPH T0)/(% Activity NADPH T30)” value ([4]; 25 μM)?
**A.** 0.9

**Q.** What about the “(% Activity NADPH T0)/(% Activity NADPH T30)” value ([4]; 50 μM) of the same molecule?
**A.** 0.8

**Q.** And the “fold change in enzyme activity (time dependent inhibition), 3A4” value [4]?
**A.** ≤ 1.2 fold

**Q.** What about the activity at 30 min, 25 µM [5] of the same molecule?
**A.** 90%

**Q.** What about the activity at 0 min, 25 µM [5] of the same molecule?
**A.** 80%

**Q.** And the activity at 30 min, 50 µM [5]?
**A.** 98%

**Q.** And the activity at 0 min, 50 µM [5]?
**A.** 83%
